Experimental data as given in US9949478B2, “Herbicidal combination with herbicidal active fatty acids and an ALS-inhibitor” (BAYER CROPSCIENCE AKTIENGESELLSCHAFT, priority 2013, dated 2018).
Values joined by “and” are separate entries in the source; they are usually repeats but may differ in a detail not shown here. Identical values can stand only once.

Assays:
Assay in all cases: Post-emergence test
Assay type in all cases: in vivo
Festuca ovina = test system: Festuca ovina
Source text: (§1) The following formulations of the active compounds involved were used: • fatty acids 120 EC (fatty acid mixture of two fatty acids having hydrocarbon chains of 8 and 10 carbon atoms in a ratio of 60 to 40; for the preparation see EP application number 12177824.5; title: “Emulsifiable Concentrate Formulation with Herbicidal Active Fatty Acids); application date: Jul. 25, 2012). • foramsulfuron 50 WG (water dispersible granule) standard granule formulation without adjuvants • iodosulfuron 10 WG (water dispersible granule) • (commercial formulation Destiny, approved inter alia in Australia—Bayer CropScience) • mesosulfuron 75 WG (water dispersible granule) standard granule formulation without adjuvants • thiencarbazone 70 WG (water dispersible granule) standard granule formulation without adjuvants • flazasulfuron 25 WG (water dispersible granule) • (commercial formulation Chikara, approved inter alia in Germany—product licence holder ISK Biosciences) • amidosulfuron 75 WG (water dispersible granule) • (commercial formulation Hoestar, approved inter alia in Germany—Bayer CropScience) • ethoxysulfuron 60 WG (water dispersible granule) • (commercial formulation SunRice, approved inter alia in Italy—Bayer CropScience)
(§2) The active compound concentrations required for the tests were prepared by dilution with water. The tested active compound combinations were mixed shortly before their biological examination.
(§3) In the case of all herbicide combinations according to the invention, for most of the test plants synergistic actions are observed (see Tables 1 to 25).

Chenopodium album = test system: Chenopodium album
Source text: as §1, §2, §3

Achillea millefolium = conditions: 34 days
Source text: as §1, §2, §3

Rumex acetosa = conditions: 34 days
Source text: as §1, §2, §3

Trifolium repens = test system: Trifolium repens
Source text: as §1, §2, §3

Lotus corniculatus = conditions: 34 days
Source text: as §1, §2, §3

Plantago major = test system: Plantago major
Source text: as §1, §2, §3

Stellaria media = conditions: 34 days
Source text: as §1, §2, §3

Plantago lanceolata = conditions: 34 days
Source text: as §1, §2, §3

Taraxacum officinale = test system: Taraxacum officinale
Source text: as §1, §2, §3

Ranunculus repens = conditions: 34 days
Source text: as §1, §2, §3

Bellis perennis = conditions: 34 days
Source text: as §1, §2, §3

Poa annua = conditions: 48 days
Source text: as §1, §2, §3

[1] = 30 g of active compound/ha, 34 days
[2] = 37.5 g of active compound/ha, 34 days
[3] = 20 g of active compound/ha, 34 days
[4] = 15 g of active compound/ha, 34 days
[5] = 60 g of active compound/ha, 34 days
[6] = 1 g of active compound/ha, 48 days
[7] = 1.25 g of active compound/ha, 34 days
[8] = 1.25 g of active compound/ha, 48 days
[9] = 2.5 g of active compound/ha, 48 days
[10] = 10 g of active compound/ha, 48 days
[11] = 15 g of active compound/ha, 48 days
[12] = 45 g of active compound/ha, 34 days
[13] = 45 g of active compound/ha, 48 days
[14] = 60 g of active compound/ha, 48 days

For `COc1cc(OC)nc(NC(=O)NS(=O)(=O)N(C)S(C)(=O)=O)n1` [Amidosulfuron, 3-(4,6-dimethoxypyrimidin-2-yl)-1-(N-methyl-N-methylsulfonylaminosulfonyl)urea], the “herbicidal effect [%]” value (Festuca ovina; [1]) was 0%, the “herbicidal effect [%]” value (Chenopodium album; [1]) was 27% and the “herbicidal effect [%]” value (Achillea millefolium; 30 g of active compound/ha) was 18%. For the same molecule, the “herbicidal effect [%]” value (Rumex acetosa; 30 g of active compound/ha) was 28%, the “herbicidal effect [%]” value (Trifolium repens; [1]) was 13% and the “herbicidal effect [%]” value (Lotus corniculatus; 30 g of active compound/ha) was 0%. The “herbicidal effect [%]” value (Plantago major; [1]) was 88%, the “herbicidal effect [%]” value (Stellaria media; 30 g of active compound/ha) was 10% and the “herbicidal effect [%]” value (Plantago lanceolata; 30 g of active compound/ha) was 13%. The “herbicidal effect [%]” value (Taraxacum officinale; [1]) was 88%, the “herbicidal effect [%]” value (Ranunculus repens; 30 g of active compound/ha) was 96% and the “herbicidal effect [%]” value (Bellis perennis; 30 g of active compound/ha) was 33%.
With `COc1cc(OC)nc(NC(=O)NS(=O)(=O)c2ncccc2C(F)(F)F)n1` [Flazasulfuron, 1-(4,6-dimethoxypyrimidin-2-yl)-3-(3-trifluoromethyl-2-pyridylsulfonyl)urea] the “herbicidal effect [%]” value (Festuca ovina; [2]) was 68%, the “herbicidal effect [%]” value (Chenopodium album; [2]) was 70% and the “herbicidal effect [%]” value (Achillea millefolium; 37.5 g of active compound/ha) was 67%. For the same molecule, the “herbicidal effect [%]” value (Rumex acetosa; 37.5 g of active compound/ha) was 52%, the “herbicidal effect [%]” value (Trifolium repens; [2]) was 63% and the “herbicidal effect [%]” value (Lotus corniculatus; 37.5 g of active compound/ha) was 23%. The “herbicidal effect [%]” value (Plantago major; [2]) was 75%, the “herbicidal effect [%]” value (Stellaria media; 37.5 g of active compound/ha) was 95% and the “herbicidal effect [%]” value (Plantago lanceolata; 37.5 g of active compound/ha) was 7%. The “herbicidal effect [%]” value (Taraxacum officinale; [2]) was 87%, the “herbicidal effect [%]” value (Ranunculus repens; 37.5 g of active compound/ha) was 99% and the “herbicidal effect [%]” value (Bellis perennis; 37.5 g of active compound/ha) was 52%.
For `COC(=O)c1csc(C)c1S(=O)(=O)NC(=O)n1nc(OC)n(C)c1=O` [Thiencarbazone-methyl, methyl 4-[(4,5-dihydro-3-methoxy-4-methyl-5-oxo-1H-1,2,4-triazol-1yl)carbonylsulfamoyl]-5-methylthiophene-3-carboxylate], the “herbicidal effect [%]” value (Festuca ovina; [3]) was 42%, the “herbicidal effect [%]” value (Chenopodium album; [3]) was 23% and the “herbicidal effect [%]” value (Achillea millefolium; 20 g of active compound/ha) was 25%. For the same molecule, the “herbicidal effect [%]” value (Rumex acetosa; 20 g of active compound/ha) was 52%, the “herbicidal effect [%]” value (Trifolium repens; [3]) was 55% and the “herbicidal effect [%]” value (Lotus corniculatus; 20 g of active compound/ha) was 2%. For the same molecule, the “herbicidal effect [%]” value (Plantago major; [3]) was 87%, the “herbicidal effect [%]” value (Stellaria media; 20 g of active compound/ha) was 53% and the “herbicidal effect [%]” value (Plantago lanceolata; 20 g of active compound/ha) was 67%. For the same molecule, the “herbicidal effect [%]” value (Taraxacum officinale; [3]) was 38%, the “herbicidal effect [%]” value (Ranunculus repens; 20 g of active compound/ha) was 97% and the “herbicidal effect [%]” value (Bellis perennis; 20 g of active compound/ha) was 28%.
With `COC(=O)c1ccc(CNS(C)(=O)=O)cc1S(=O)(=O)NC(=O)Nc1nc(OC)cc(OC)n1` [Mesosulfuron-methyl, methyl 2-[(4,6-dimethoxypyrimidin-2-ylcarbamoyl)sulfamoyl]-a-(methanesulfonamido)-p-toluate] the “herbicidal effect [%]” value (Festuca ovina; [4]) was 0%, the “herbicidal effect [%]” value (Chenopodium album; [4]) was 3% and the “herbicidal effect [%]” value (Achillea millefolium; 15 g of active compound/ha) was 4%. For the same molecule, the “herbicidal effect [%]” value (Rumex acetosa; 15 g of active compound/ha) was 2%, the “herbicidal effect [%]” value (Trifolium repens; [4]) was 2% and the “herbicidal effect [%]” value (Lotus corniculatus; 15 g of active compound/ha) was 0%. For the same molecule, the “herbicidal effect [%]” value (Plantago major; [4]) was 0%, the “herbicidal effect [%]” value (Stellaria media; 15 g of active compound/ha) was 2% and the “herbicidal effect [%]” value (Plantago lanceolata; 15 g of active compound/ha) was 0%. The “herbicidal effect [%]” value (Taraxacum officinale; [4]) was 42%, the “herbicidal effect [%]” value (Ranunculus repens; 15 g of active compound/ha) was 80% and the “herbicidal effect [%]” value (Bellis perennis; 15 g of active compound/ha) was 5%.
`CCOc1ccccc1OS(=O)(=O)NC(=O)Nc1nc(OC)cc(OC)n1` [Ethoxysulfuron, 2-ethoxyphenyl[(4,6-dimethoxypyrimidin-2-yl)carbamoyl]sulfamate] was tested, and the “herbicidal effect [%]” value (Festuca ovina; [5]) was 0%, the “herbicidal effect [%]” value (Chenopodium album; [5]) was 5% and the “herbicidal effect [%]” value (Achillea millefolium; 60 g of active compound/ha) was 13%. For the same molecule, the “herbicidal effect [%]” value (Rumex acetosa; 60 g of active compound/ha) was 25%, the “herbicidal effect [%]” value (Trifolium repens; [5]) was 47% and the “herbicidal effect [%]” value (Lotus corniculatus; 60 g of active compound/ha) was 0%. For the same molecule, the “herbicidal effect [%]” value (Plantago major; [5]) was 0%, the “herbicidal effect [%]” value (Stellaria media; 60 g of active compound/ha) was 5% and the “herbicidal effect [%]” value (Plantago lanceolata; 60 g of active compound/ha) was 5%. The “herbicidal effect [%]” value (Taraxacum officinale; [5]) was 38%, the “herbicidal effect [%]” value (Ranunculus repens; 60 g of active compound/ha) was 92% and the “herbicidal effect [%]” value (Bellis perennis; 60 g of active compound/ha) was 10%.
With `COc1nc(C)nc(NC(=O)NS(=O)(=O)c2cc(I)ccc2C(=O)[O-])n1.[Na+]` [Iodosulfuron-methyl sodium salt, 4-iodo-2-[(4-methoxy-6-methyl-1,3,5-triazin-2-yl)carbamoylsulfamoyl]benzoate, sodium salt] the “herbicidal effect [%]” value (Festuca ovina; [6]) was 0%, the “herbicidal effect [%]” value (Festuca ovina; [7]) was 0% and the “herbicidal effect [%]” value (Festuca ovina; [8]) was 0%. For the same molecule, the “herbicidal effect [%]” value (Festuca ovina; [9]) was 0%, the “herbicidal effect [%]” value (Festuca ovina; [10]) was 6.7% and the “herbicidal effect [%]” value (Chenopodium album; [6]) was 0%. For the same molecule, the “herbicidal effect [%]” value (Chenopodium album; [7]) was 13%, the “herbicidal effect [%]” value (Chenopodium album; [8]) was 0% and the “herbicidal effect [%]” value (Chenopodium album; [9]) was 10%. For the same molecule, the “herbicidal effect [%]” value (Chenopodium album; [10]) was 40%, the “herbicidal effect [%]” value (Achillea millefolium; 1.25 g of active compound/ha) was 5% and the “herbicidal effect [%]” value (Rumex acetosa; 1.25 g of active compound/ha) was 12%. The “herbicidal effect [%]” value (Trifolium repens; [6]) was 18.3%, the “herbicidal effect [%]” value (Trifolium repens; [7]) was 10% and the “herbicidal effect [%]” value (Trifolium repens; [8]) was 32%. The “herbicidal effect [%]” value (Trifolium repens; [9]) was 45%, the “herbicidal effect [%]” value (Trifolium repens; [10]) was 80% and the “herbicidal effect [%]” value (Poa annua; 1 g of active compound/ha) was 0%. The “herbicidal effect [%]” value (Poa annua; 1.25 g of active compound/ha) was 0%, the “herbicidal effect [%]” value (Poa annua; 2.5 g of active compound/ha) was 0% and the “herbicidal effect [%]” value (Poa annua; 10 g of active compound/ha) was 0%. The “herbicidal effect [%]” value (Lotus corniculatus; 1.25 g of active compound/ha) was 0%, the “herbicidal effect [%]” value (Plantago major; [6]) was 0% and the “herbicidal effect [%]” value (Plantago major; [7]) was 22%. The “herbicidal effect [%]” value (Plantago major; [8]) was 3%, the “herbicidal effect [%]” value (Plantago major; [9]) was 30% and the “herbicidal effect [%]” value (Plantago major; [10]) was 53.3%. For the same molecule, the “herbicidal effect [%]” value (Stellaria media; 1.25 g of active compound/ha) was 22%, the “herbicidal effect [%]” value (Plantago lanceolata; 1.25 g of active compound/ha) was 3% and the “herbicidal effect [%]” value (Taraxacum officinale; [6]) was 18.3%. The “herbicidal effect [%]” value (Taraxacum officinale; [7]) was 50%, the “herbicidal effect [%]” value (Taraxacum officinale; [8]) was 18% and the “herbicidal effect [%]” value (Taraxacum officinale; [9]) was 42%. The “herbicidal effect [%]” value (Taraxacum officinale; [10]) was 85%, the “herbicidal effect [%]” value (Ranunculus repens; 1.25 g of active compound/ha) was 73% and the “herbicidal effect [%]” value (Bellis perennis; 1.25 g of active compound/ha) was 10%.
In the case of `COc1cc(OC)nc(NC(=O)NS(=O)(=O)c2cc(NC=O)ccc2C(=O)N(C)C)n1` [Foramsulfuron, 1-(4,6-dimethoxypyrimidin-2yl)-3-(2-dimethylcarbamoyl-5-formamidophenylsulfonyl)urea], the “herbicidal effect [%]” value (Festuca ovina; [11]) is reported as 6.7%, the “herbicidal effect [%]” value (Festuca ovina; [12]) is reported as 35% and the “herbicidal effect [%]” value (Festuca ovina; [13]) is reported as 53%. The “herbicidal effect [%]” value (Festuca ovina; [14]) was 58.3% and 58%, the “herbicidal effect [%]” value (Chenopodium album; [11]) was 0% and the “herbicidal effect [%]” value (Chenopodium album; [12]) was 8%. The “herbicidal effect [%]” value (Chenopodium album; [13]) was 13%, the “herbicidal effect [%]” value (Chenopodium album; [14]) was 13.3% and 13% and the “herbicidal effect [%]” value (Achillea millefolium; 45 g of active compound/ha) was 17%. The “herbicidal effect [%]” value (Rumex acetosa; 45 g of active compound/ha) was 11%, the “herbicidal effect [%]” value (Trifolium repens; [11]) was 18.3% and the “herbicidal effect [%]” value (Trifolium repens; [12]) was 20%. For the same molecule, the “herbicidal effect [%]” value (Trifolium repens; [13]) was 53%, the “herbicidal effect [%]” value (Trifolium repens; [14]) was 60% and the “herbicidal effect [%]” value (Poa annua; 15 g of active compound/ha) was 18.3%. For the same molecule, the “herbicidal effect [%]” value (Poa annua; 45 g of active compound/ha) was 48%, the “herbicidal effect [%]” value (Poa annua; 60 g of active compound/ha) was 73.3% and 73% and the “herbicidal effect [%]” value (Lotus corniculatus; 45 g of active compound/ha) was 0%. The “herbicidal effect [%]” value (Plantago major; [11]) was 0%, the “herbicidal effect [%]” value (Plantago major; [12]) was 47% and the “herbicidal effect [%]” value (Plantago major; [13]) was 23%. The “herbicidal effect [%]” value (Plantago major; [14]) was 33.3% and 33%, the “herbicidal effect [%]” value (Stellaria media; 45 g of active compound/ha) was 18% and the “herbicidal effect [%]” value (Plantago lanceolata; 45 g of active compound/ha) was 8%. For the same molecule, the “herbicidal effect [%]” value (Taraxacum officinale; [11]) was 45%, the “herbicidal effect [%]” value (Taraxacum officinale; [12]) was 55% and the “herbicidal effect [%]” value (Taraxacum officinale; [13]) was 70%. The “herbicidal effect [%]” value (Taraxacum officinale; [14]) was 75%, the “herbicidal effect [%]” value (Ranunculus repens; 45 g of active compound/ha) was 95% and the “herbicidal effect [%]” value (Bellis perennis; 45 g of active compound/ha) was 13%.
